Where a SMILES comes first, the peptide text is derived from it. Bridges are numbered along the chain shown (N, C = ends). [ ]: non-standard residue; d: D form. The star is where a group is joined. Ala(morpholin-4-yl) = N[C@@H](CN1CCOCC1)C(=O)O; Phe(4-COOH) = N[C@@H](Cc1ccc(C(=O)O)cc1)C(=O)O; Bip = N[C@@H](Cc1ccc(-c2ccccc2)cc1)C(=O)O; Phe(3-Me) = Cc1cccc(C[C@H](N)C(=O)O)c1; Val(3-OH) = CC(C)(O)[C@H](N)C(=O)O; Cha = N[C@@H](CC1CCCCC1)C(=O)O; Carboxymethyl = O=C(O)C*; Nle = CCCC[C@H](N)C(=O)O; Orn = NCCC[C@H](N)C(=O)O; Pra = C#CC[C@H](N)C(=O)O; Dab = NCC[C@H](N)C(=O)O; Abu = CC[C@H](N)C(=O)O; Dap = NC[C@H](N)C(=O)O; Propargyl = C#CC*
Molecular target: T1, human PD-1 / PD-L1-Ig binding on Jurkat cell line over-expressing human PD-1 (Jurkat-PD-1) (Homo sapiens, UniProt Q15116)
T1 construct: expressed in transfected cells; host or cells: Jurkat
T1 sequence (Q15116 25-288): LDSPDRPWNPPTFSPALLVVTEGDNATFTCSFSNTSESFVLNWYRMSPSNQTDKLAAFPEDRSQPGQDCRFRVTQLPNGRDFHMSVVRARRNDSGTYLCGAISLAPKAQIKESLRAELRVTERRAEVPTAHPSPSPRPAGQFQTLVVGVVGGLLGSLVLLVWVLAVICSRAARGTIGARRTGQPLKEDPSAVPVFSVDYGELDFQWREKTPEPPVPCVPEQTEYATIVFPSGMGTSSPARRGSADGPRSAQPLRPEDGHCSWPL
Test: Jurkat-PD-1 Cell Binding High-Content Screening Assay (CBA)
Format: cell-based
Details: Jurkat-PD-1 cells, PE-labeled PD-L1-Ig 20 nM final; read-out: Jurkat HPD1_PDL1 IC50
Procedure, shortened: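 Jurkat cells over-expressing human PD-1, in DMEM/10% FCS, pre-incubated with compound 2 h at 37° C. PE-labeled human PD-L1-Ig (20 nM final) added for 1 h; cells fixed in paraformaldehyde with Hoechst 33342 nuclear stain, washed, and bound fluorescence quantified by high-content imaging.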

Row | Compound | IC50 [nM]
1 | C#CCOc1ccc(C[C@@H]2NC(=O)[C@H](Cc3cccc(C)c3)NC(=O)[C@H](CC(=O)O)NC(=O)[C@H](Cc3ccc(C(=O)O)cc3)NC(=O)[C@H]([C@@H](C)O)NC(=O)CSC[C@@H](C(=O)N[C@@H](CCN)C(N)=O)NC(=O)[C@H](CCC(=O)O)NC(=O)[C@H](C(C)C)NC(=O)[C@H](CC3CCCCC3)NC(=O)[C@H](CCN)NC(=O)[C@@H](CC(C)C)NC(=O)[C@H](CCCN)NC(=O)[C@H](Cc3ccc(C(=O)O)cc3)NC(=O)[C@H](Cc3ccc(-c4ccccc4)cc3)NC2=O)cc1 [Compound 1841] ({CH2CO}-T[Phe(4-COOH)]D[Phe(3-Me)]Y(Propargyl)[Bip][Phe(4-COOH)][Orn][dL][Dab][Cha]VEC[Dab]-NH2; thioether N-14) | 3.9
2 | C#CCOc1ccc(C[C@@H]2NC(=O)[C@H](Cc3cccc(C)c3)NC(=O)[C@H](CC(=O)O)NC(=O)[C@H](Cc3ccc(C(=O)O)cc3)NC(=O)[C@H](CCCC)NC(=O)CSC[C@@H](C(=O)N[C@@H](CCN)C(N)=O)NC(=O)[C@H](CCC(=O)O)NC(=O)[C@H](C(C)C)NC(=O)[C@H](CC3CCCCC3)NC(=O)[C@H](CCN)NC(=O)[C@@H](CC(C)C)NC(=O)[C@H](CCCN)NC(=O)[C@H](Cc3ccc(C(=O)O)cc3)NC(=O)[C@H](Cc3ccc(-c4ccccc4)cc3)NC2=O)cc1 [Compound 1842] ({CH2CO}-[Nle][Phe(4-COOH)]D[Phe(3-Me)]Y(Propargyl)[Bip][Phe(4-COOH)][Orn][dL][Dab][Cha]VEC[Dab]-NH2; thioether N-14) | 1.2
3 | C#CCOc1ccc(C[C@@H]2NC(=O)[C@H](Cc3ccc(-c4ccccc4)cc3)NC(=O)[C@H](Cc3ccc(OCC(=O)O)cc3)NC(=O)[C@H](Cc3cccc(C)c3)NC(=O)[C@H](CC(=O)O)NC(=O)[C@H](Cc3ccc(OCC(=O)O)cc3)NC(=O)[C@H](CC)NC(=O)CSC[C@@H](C(=O)N[C@@H](CCN)C(N)=O)NC(=O)[C@H](CCC(=O)O)NC(=O)[C@H](C(C)C)NC(=O)[C@H](CC3CCCCC3)NC(=O)[C@H](CCN)NC(=O)[C@@H](CC(C)C)NC(=O)[C@H](CCCN)NC2=O)cc1 [Compound 1843] ({CH2CO}-[Abu]Y(Carboxymethyl)D[Phe(3-Me)]Y(Carboxymethyl)[Bip]Y(Propargyl)[Orn][dL][Dab][Cha]VEC[Dab]-NH2; thioether N-14) | 8.3
4 | C#CCOc1ccc(C[C@@H]2NC(=O)[C@H](Cc3ccc(-c4ccccc4)cc3)NC(=O)[C@H](Cc3ccc(C(=O)O)cc3)NC(=O)[C@H](Cc3cccc(C)c3)NC(=O)[C@H](CC(=O)O)NC(=O)[C@H](Cc3ccc(C(=O)O)cc3)NC(=O)[C@H](Cc3ccc(OCC(=O)O)cc3)NC(=O)CSC[C@@H](C(=O)N[C@@H](CCN)C(N)=O)NC(=O)[C@H](CCC(=O)O)NC(=O)[C@H](C(C)C)NC(=O)[C@H](CC3CCCCC3)NC(=O)[C@H](CCN)NC(=O)[C@@H](CC(C)C)NC(=O)[C@H](CCCN)NC2=O)cc1 [Compound 1844] ({CH2CO}-Y(Carboxymethyl)[Phe(4-COOH)]D[Phe(3-Me)][Phe(4-COOH)][Bip]Y(Propargyl)[Orn][dL][Dab][Cha]VEC[Dab]-NH2; thioether N-14) | 13.2
5 | C#CC[C@H](NC(=O)[C@H](CCN)NC(=O)[C@@H]1CSCC(=O)N[C@@H](CN)C(=O)N[C@@H](Cc2ccc(C(=O)O)cc2)C(=O)N[C@@H](CC(=O)O)C(=O)N[C@@H](Cc2cccc(C)c2)C(=O)N[C@@H](Cc2ccc(C(=O)O)cc2)C(=O)N[C@@H](Cc2ccc(-c3ccccc3)cc2)C(=O)N[C@@H](Cc2ccc(C(=O)O)cc2)C(=O)N[C@@H](CCCN)C(=O)N[C@H](CC(C)C)C(=O)N[C@@H](CCN)C(=O)N[C@@H](CC2CCCCC2)C(=O)N[C@@H](C(C)(C)O)C(=O)N[C@@H](CO)C(=O)N1)C(N)=O [Compound 1845] ({CH2CO}-[Dap][Phe(4-COOH)]D[Phe(3-Me)][Phe(4-COOH)][Bip][Phe(4-COOH)][Orn][dL][Dab][Cha][Val(3-OH)]SC[Dab][Pra]-NH2; thioether N-14) | 7.3
6 | C#CC[C@H](NC(=O)[C@H](CCN)NC(=O)[C@@H]1CSCC(=O)N[C@@H](CCCN)C(=O)N[C@@H](Cc2ccc(C(=O)O)cc2)C(=O)N[C@@H](CC(=O)O)C(=O)N[C@@H](Cc2cccc(C)c2)C(=O)N[C@@H](Cc2ccc(C(=O)O)cc2)C(=O)N[C@@H](Cc2ccc(-c3ccccc3)cc2)C(=O)N[C@@H](Cc2ccc(C(=O)O)cc2)C(=O)N[C@@H](CCCN)C(=O)N[C@H](CC(C)C)C(=O)N[C@@H](CCN)C(=O)N[C@@H](CC2CCCCC2)C(=O)N[C@@H](C(C)(C)O)C(=O)N[C@@H](CO)C(=O)N1)C(N)=O [Compound 1846] ({CH2CO}-[Orn][Phe(4-COOH)]D[Phe(3-Me)][Phe(4-COOH)][Bip][Phe(4-COOH)][Orn][dL][Dab][Cha][Val(3-OH)]SC[Dab][Pra]-NH2; thioether N-14) | 8.3
7 | C#CC[C@H](NC(=O)[C@H](CCN)NC(=O)[C@@H]1CSCC(=O)N[C@@H](CN2CCOCC2)C(=O)N[C@@H](Cc2ccc(C(=O)O)cc2)C(=O)N[C@@H](CC(=O)O)C(=O)N[C@@H](Cc2cccc(C)c2)C(=O)N[C@@H](Cc2ccc(C(=O)O)cc2)C(=O)N[C@@H](Cc2ccc(-c3ccccc3)cc2)C(=O)N[C@@H](Cc2ccc(C(=O)O)cc2)C(=O)N[C@@H](CCCN)C(=O)N[C@H](CC(C)C)C(=O)N[C@@H](CCN)C(=O)N[C@@H](CC2CCCCC2)C(=O)N[C@@H](C(C)(C)O)C(=O)N[C@@H](CO)C(=O)N1)C(N)=O [Compound 1847] ({CH2CO}-[Ala(morpholin-4-yl)][Phe(4-COOH)]D[Phe(3-Me)][Phe(4-COOH)][Bip][Phe(4-COOH)][Orn][dL][Dab][Cha][Val(3-OH)]SC[Dab][Pra]-NH2; thioether N-14) | 2.1
8 | C#CC[C@H](NC(=O)[C@H](CCN)NC(=O)[C@@H]1CSCC(=O)N[C@@H](CN)C(=O)N[C@@H](Cc2ccc(C(=O)O)cc2)C(=O)N[C@@H](CC(=O)O)C(=O)N[C@@H](Cc2cccc(C)c2)C(=O)N[C@@H](Cc2ccc(C(=O)O)cc2)C(=O)N[C@@H](Cc2ccc(-c3ccccc3)cc2)C(=O)N[C@@H](Cc2ccc(C(=O)O)cc2)C(=O)N[C@@H](CCCN)C(=O)N[C@H](CC(C)C)C(=O)N[C@@H](CCN)C(=O)N[C@@H](CC2CCCCC2)C(=O)N[C@@H](C(C)(C)O)C(=O)N[C@@H](Cc2cnc[nH]2)C(=O)N1)C(N)=O [Compound 1848] ({CH2CO}-[Dap][Phe(4-COOH)]D[Phe(3-Me)][Phe(4-COOH)][Bip][Phe(4-COOH)][Orn][dL][Dab][Cha][Val(3-OH)]HC[Dab][Pra]-NH2; thioether N-14) | 8.3
9 | C#CC[C@H](NC(=O)[C@H](CCN)NC(=O)[C@@H]1CSCC(=O)N[C@@H](CCN)C(=O)N[C@@H](Cc2ccc(C(=O)O)cc2)C(=O)N[C@@H](CC(=O)O)C(=O)N[C@@H](Cc2cccc(C)c2)C(=O)N[C@@H](Cc2ccc(C(=O)O)cc2)C(=O)N[C@@H](Cc2ccc(-c3ccccc3)cc2)C(=O)N[C@@H](Cc2ccc(C(=O)O)cc2)C(=O)N[C@@H](CCCN)C(=O)N[C@H](CC(C)C)C(=O)N[C@@H](CCN)C(=O)N[C@@H](CC2CCCCC2)C(=O)N[C@@H](C(C)(C)O)C(=O)N[C@@H](Cc2cnc[nH]2)C(=O)N1)C(N)=O [Compound 1849] ({CH2CO}-[Dab][Phe(4-COOH)]D[Phe(3-Me)][Phe(4-COOH)][Bip][Phe(4-COOH)][Orn][dL][Dab][Cha][Val(3-OH)]HC[Dab][Pra]-NH2; thioether N-14) | 7.8
10 | C#CC[C@H](NC(=O)[C@H](CCN)NC(=O)[C@@H]1CSCC(=O)N[C@@H](CCN)C(=O)N[C@@H](Cc2ccc(C(=O)O)cc2)C(=O)N[C@@H](CC(=O)O)C(=O)N[C@@H](Cc2cccc(C)c2)C(=O)N[C@@H](Cc2ccc(C(=O)O)cc2)C(=O)N[C@@H](Cc2ccc(-c3ccccc3)cc2)C(=O)N[C@@H](Cc2ccc(C(=O)O)cc2)C(=O)N[C@@H](CCCN)C(=O)N[C@H](CC(C)C)C(=O)N[C@@H](CCN)C(=O)N[C@@H](CC2CCCCC2)C(=O)N[C@@H](C(C)(C)O)C(=O)N[C@@H](CCCN)C(=O)N1)C(N)=O [Compound 1850] ({CH2CO}-[Dab][Phe(4-COOH)]D[Phe(3-Me)][Phe(4-COOH)][Bip][Phe(4-COOH)][Orn][dL][Dab][Cha][Val(3-OH)][Orn]C[Dab][Pra]-NH2; thioether N-14) | 5.2
11 | C#CC[C@H](NC(=O)[C@H](CCN)NC(=O)[C@@H]1CSCC(=O)N[C@@H](CCN)C(=O)N[C@@H](Cc2ccc(OCC(=O)O)cc2)C(=O)N[C@@H](CC(=O)O)C(=O)N[C@@H](Cc2cccc(C)c2)C(=O)N[C@@H](Cc2ccc(OCC(=O)O)cc2)C(=O)N[C@@H](Cc2ccc(-c3ccccc3)cc2)C(=O)N[C@@H](Cc2ccc(OCC(=O)O)cc2)C(=O)N[C@@H](CCCN)C(=O)N[C@H](CC(C)C)C(=O)N[C@@H](CCN)C(=O)N[C@@H](CC2CCCCC2)C(=O)N[C@@H](C(C)(C)O)C(=O)N[C@@H](CO)C(=O)N1)C(N)=O [Compound 1851] ({CH2CO}-[Dab]Y(Carboxymethyl)D[Phe(3-Me)]Y(Carboxymethyl)[Bip]Y(Carboxymethyl)[Orn][dL][Dab][Cha][Val(3-OH)]SC[Dab][Pra]-NH2; thioether N-14) | 5.2
12 | C#CC[C@H](NC(=O)[C@H](CCN)NC(=O)[C@@H]1CSCC(=O)N[C@@H](CN2CCOCC2)C(=O)N[C@@H](Cc2ccc(OCC(=O)O)cc2)C(=O)N[C@@H](CC(=O)O)C(=O)N[C@@H](Cc2cccc(C)c2)C(=O)N[C@@H](Cc2ccc(OCC(=O)O)cc2)C(=O)N[C@@H](Cc2ccc(-c3ccccc3)cc2)C(=O)N[C@@H](Cc2ccc(OCC(=O)O)cc2)C(=O)N[C@@H](CCCN)C(=O)N[C@H](CC(C)C)C(=O)N[C@@H](CCN)C(=O)N[C@@H](CC2CCCCC2)C(=O)N[C@@H](C(C)(C)O)C(=O)N[C@@H](CO)C(=O)N1)C(N)=O [Compound 1852] ({CH2CO}-[Ala(morpholin-4-yl)]Y(Carboxymethyl)D[Phe(3-Me)]Y(Carboxymethyl)[Bip]Y(Carboxymethyl)[Orn][dL][Dab][Cha][Val(3-OH)]SC[Dab][Pra]-NH2; thioether N-14) | 18.9
